Data: patent US20070179147A1, “Methods of treating and preventing Alzheimer's disease” (priority 2006, published 2007)
Where “and” joins values, the source holds several entries; their conditions need not be identical. Equal values may be shown once. Entries after “also recorded” stand apart in the source; their conditions may differ. Read-outs that look alike come from different tables or passages of the source.

Legend:
[1] = system: primary neurons from cortex and striatum; test: Neurotoxicity of Aβ peptides (morphology, LDH, MTS); format: cell-based, rat; conditions: for increase in LDH of the culture medium: 10 uM peptide, 16 day post-insult, neurons 12-16 d.i.v., 0% AO
cortical neurons [2] = conditions: for protection from neuronal cell death (morphology): 5 μM, hypoxia
Method: Experiments were performed in a 96-well plate format. Cortical neurons were seeded at a density of 50,000 cells/well on a poly-D-lysine coated surface, and cultured in serum-free medium (NB plus B27 supplement) to obtain cultures highly enriched for neurons. Neurons were cultured for over 14 d.i.v. to increase cell susceptibility to excitatory amino acids (Jiang et al., 2001). Six replicate wells were treated as a group to facilitate assay quantitation.
Treatment with drug was continued during and subsequent to a 24-hour period of hypoxia. Cellular morphology and function (MTS and LDH assays) were measured 24 or 48 hours subsequent to the hypoxic insult.
The MTS assay is a colorimetric assay that measures the mitochondrial function in metabolically active cells. This measurement indirectly reflects cell viability. […] 20 μl of MTS reagent (Promega) are added to each well of the 96 well assay plates containing the samples in 100 μl of culture medium. The plate is then incubated in a humidified, 5% CO2 atmosphere at 37° C. for 1-2 hours until the color is fully developed. The absorbance at 490 nm was recorded using a Bio-Rad 96 well plate reader.
The lactate dehydrogenase (LDH) assay is based on the reduction of NAD by the action of LDH. The resulting reduced NAD (NADH) is utilized in the stoichiometric conversion of a tetrazolium dye. If cell-free aliquots of medium from cultures given different treatments are assayed, then the amount of LDH activity can be used as an indicator of relative cell death as well as a function of membrane integrity. A 50 μl aliquot of culture medium from a well in tested 96-well plate is transferred into a well in unused plate and supplemented with 25 μl of equally-mixed Substrate, Enzyme and Dye Solutions (Sigma). The preparation is incubated at room temperature for 20-30 minutes, and then measured spectrophotometrically at wavelength of 490 nm.

[3] = Solubility of PAN-811 in solvents; conditions: PEG-300/EtOH vs EtOH
[4] = system: enriched neuronal cultures (cerebellar tissue); test: In vitro models of excitotoxicity (H/H, glutamate, staurosporine, veratridine), MTT assay
Method: Enriched neuronal cultures were prepared from 15-day-old Sprague-Dawley rat embryos. Using aseptic techniques, the rat embryos were removed from the uterus and placed in sterile neuronal culture medium. Using a dissecting microscope, the brain tissue was removed from each embryo, with care taken to discard the meninges and blood vessels. The cerebellum was separated by gross dissection under the microscope, and only cerebellar tissue was used for the culture. Cells were dissociated by trituration of the tissue and were plated at a density of 5×10^5 cells/well onto 48-well culture plates precoated with poly(L-lysine). Cultures were maintained in a medium containing equal parts of Eagle's basal medium (without glutamine) and Ham's F-12k medium supplemented with 10% heat-inactivated horse serum, 10% fetal bovine serum, 600 μg/ml glucose, 100 μg/ml glutamine, 50 U/ml penicillin, and 50 μg/ml streptomycin. After 48 h, 10 μM cytosine arabinoside was added to inhibit non-neuronal cell division. Cells were used in experiments after 7 days in culture.
Four in vitro models of excitotoxicity were studied. Cells were either exposed to H/H conditions for 3 hrs or treated for 45 min with one of glutamate (100 μM), staurosporine (1 μM) or veratridine (10 μM). All cells were co-treated with or without PAN-811 (10 μM) in Locke's solution. At the conclusion of the respective excitotoxic exposures, the condition medium (original) was replaced. H/H was induced by incubating the cells in a humidified airtight chamber saturated with 95% nitrogen, 5% CO2 gas for 3 hrs in Locke's solution without added glucose.
Twenty-four hours after the excitotoxic insult, cell viability assessments were made. Cell damage was quantitatively assessed using a tetrazolium salt colorimetric assay with 3-(4,5-dimethylthiazol-2-yl)-2,5-diphenyltetrazolium (MTT; Sigma Chemical Co., St. Louis, Mo.). Briefly, the dye was added to each well (final concentration, 1.5 mg/ml), cells were incubated with MTT-acidified isopropanol (0.1 N HCl in isopropanol), and the absorbance intensity (540 nm) of each sample was measured in a 96-well plate reader. Values are expressed relative to vehicle-treated control cells that were maintained on each plate, and the percentage change in cell viability was calculated.

primary cortical neurons [5] = test: Neuroprotection against H2O2-induced oxidative stress (MTS assay), comparison with known neuroprotectants; format: cell-based, rat; conditions: 24 h pre-treatment, harsh H2O2 treatment (150 μM)
Method: Twice, half the amount of medium was replaced with fresh neurobasal medium containing no antioxidants. […] The other known neuroprotectants were dissolved in appropriate solvents and diluted to the final concentrations as indicated. […] Each assay was performed in triplicate. After 24 hours, the cultures were evaluated for viability and mitochondrial function using a standard MTS Assay (Promega). The manufacturer's protocols were followed. Experiments were carried out in accordance with the above study design. […] Ginkgo biloba was dissolved in dH2O at a concentration of 6 mg/ml, and further diluted in the neurobasal medium to final concentrations of 2.5 μ/ml, 5 μg/ml, 25 μg/ml, and 250 μg/ml. […] The plates were returned to the incubator at 37° C. with 5% CO2 for one hour. Subsequently, 20 μl MTS reagent was added to each well and the plates were incubated at 37° C. with 5% CO2 for an additional two hours. The absorbance at 490 nm for each well was recorded with the BioRad plate reader (Model 550). Wells containing medium alone were used as blanks. Each data point is the average of three separate assay wells. […] Two-week-old primary cultures were used for this set of study.

cortical neurons [6] = test: Extreme hypoxia/hypoglycemia (H/H) model, 0.4 mM glucose
Method: (§1) Experiments were performed in a 96-well plate format. Cortical neurons were seeded at a density of 50,000 cells/well on a poly-D-lysine coated surface, and cultured in serum-free medium (NB plus B27 supplement) to obtain cultures highly enriched for neurons. […] Six replicate wells were treated as a group to facilitate assay quantitation.
(§2) The extreme H/H model (0.4 mM glucose) is a mimic of the environment in the central core of an infarct; the mild H/H model (1.63 mM glucose) is a mimic of the environment in the penumbra during MCAO; and the hypoxia only model (neurons in normal in vitro glucose concentration—25 mM) is a mimic of the environment in the penumbra after reperfusion since the possible cell death after reperfusion is predominantly a result of the hypoxic effect rather then energy failure.
Hypoxia/hypoglycemia was obtained by reducing glucose concentration down to 0.4 mM and 1.63 mM for extreme H/H and mild H/H, respectively. […] The level of O2 in the chamber was determined to be zero with an O2 indicator (FYRITE Gas Analyzer, Bacharach, Inc.). […] Mitochondrial function and cell death were evaluated at 24 or 48 hours post H/H insult with the MTS and LDH analyses (see below).
The MTS assay is a colorimetric assay that measures the mitochondrial function in metabolically active cells. […] The absorbance at 490 nm was recorded using a Bio-Rad 96 well plate reader. […]

primary cortical neurons [7] = test: ROS generation in neuronal cells (c-DCF fluorescence); format: cell-based, rat; conditions: 10 μM
Method: Twice, half the amount of medium was replaced with fresh neurobasal medium without antioxidants. […] Untreated cells loaded with the dye were used as controls to calculate the c-DCF fluorescence change. Each assay was performed in triplicate. The c-DCF fluorescence at 485/520 nm (Ex/Em) for each well was recorded with the BMG Polar Star plate reader. Wells containing cells without dye were used as blanks. Each data point is the average of three separate assay wells. Untreated cells loaded with the dye were used as a control to calculate the c-DCF fluorescence change. Two-week-old primary cultures were used for the study. CM-H2DCFDA is a cell-permeant indicator for reactive oxygen species (ROS), which is non-fluorescent until the acetate groups are removed by intracellular esterases and oxidation occurs within the cell. It has been widely employed to detect the generation of ROS in cells and animals. Here, it has been used as a tool to assess the effects of PAN-811 on ROS generation in neuronal cells following the procedures described in this example. […] Experiments were repeated four times in different batches of cells and similar results were obtained. See FIG. 2 for the representative experiment.

[8] = system: male Sprague-Dawley rats, middle cerebral artery occlusion
[9] = system: enriched neuronal cultures (cerebellar tissue); test: Neurotoxicity of PAN-811, 24 h treatment (MTT assay); conditions: highest concentration tested (100 μM)
Method: Enriched neuronal cultures were prepared from 15-day-old Sprague-Dawley rat embryos. Using aseptic techniques, the rat embryos were removed from the uterus and placed in sterile neuronal culture medium. Using a dissecting microscope, the brain tissue was removed from each embryo, with care taken to discard the meninges and blood vessels. The cerebellum was separated by gross dissection under the microscope, and only cerebellar tissue was used for the culture. Cells were dissociated by trituration of the tissue and were plated at a density of 5×10^5 cells/well onto 48-well culture plates precoated with poly(L-lysine). […]
Cells were treated with varying amounts of PAN-811 (0-100 μM) for 24 hrs. Cell viability was determined in the MTT assay.
Cell damage was quantitatively assessed using a tetrazolium salt colorimetric assay with 3-(4,5-dimethylthiazol-2-yl)-2,5-diphenyltetrazolium (MTT; Sigma Chemical Co., St. Louis, Mo.). Briefly, the dye was added to each well (final concentration, 1.5 mg/ml), cells were incubated with MTT-acidified isopropanol (0.1 N HCl in isopropanol), and the absorbance intensity (540 nm) of each sample was measured in a 96-well plate reader. Values are expressed relative to vehicle-treated control cells that were maintained on each plate, and the percentage change in cell viability was calculated.

[10] = system: co-cultured cortical and striatal neurons; test: Protection from Aβ1-42 or Aβ25-35 induced neurotoxicity (morphology, LDH, MTS)
Method: Experiments were performed in a 96-well plate format. Cortical neurons were seeded at a density of 50,000 cells/well on poly-D-lysine coated surface, and cultured in serum-free medium (NB plus B27 supplement containing AO or without AO) to obtain cultures high enriched for neurons. Neurons were cultured for over 14 d.i.v. to increase cell susceptibility to excitatory amino acids (Jiang et al., 2001, supra). Three to six replicate wells were treated as a group to facilitate assay quantitation.
Lyophilized Aβs were dissolved in de-ionized and distilled water to a final concentration of 400 μM, and aliquoted and stored at −20° C. Before use, an aliquot of Aβ was removed from freezer and incubated at 37° C. for 48 hours. Neurons were cultured in NB with B27 supplement containing AO or without AO under 5% CO2 and 95% ambient air, 37° C. At 2 or 3 weeks, the neurons were treated with pre-incubated Aβ and either non-incubated Aβ or Aβ35-25 served as experimental controls.
Treatment with 2μM PAN-811 or 1:12,500 PEG:EtOH (7:3 as vehicle control) was started by at most 3 hours following Aβ insult. The neurons remained in culture post-treatment for different time periods, from 1 to 16 days.
Neuronal cell death was morphologically evaluated.
The MTS assay is a colorimetric assay that measures the mitochondrial function in metabolically active cells. This measurement indirectly reflects cell viability. […] 10 μl of MTS reagent (Promega) are added to each well of the 96 well assay plates containing the samples in 50 μl of culture medium. The plate is then incubated in a humidified, 5% CO2 atmosphere at 37° C. for 1 hour until the color is fully developed. The absorbance at 490 nm was recorded using a Bio-Rad 96 well plate reader.
Lactate dehydrogenase (LDH) assay is based on the reduction of NAD by the action of LDH. The resulting reduced NAD (NADH) is utilized in the stoichiometric conversion of a tetrazolium dye. If cell-free aliquots of medium from cultures given different treatments are assayed, then the amount of LDH activity can be used as an indicator of relative cell death as well as a function of membrane integrity. A 35μl aliquot of culture medium from a well in a 96-well test plate is transferred into a well in unused plate and supplemented with 17.5 μl of equally mixed Substrate, Enzyme and Dye Solutions (Sigma). The preparation is incubated at room temperature for 30 minutes, and then measured spectrophotometrically at a wavelength of 490 nm.
Primary neurons were isolated from cortex and striatum of 17-day-old rat embryonic brain and seeded on 96-well plates at 50,000 cells/well in regular neurobasal medium (Neurobasal Medium supplemented with B27-AO) for 2-3 weeks.
Lyophilized Aβ1-42 and Aβ25-35 were dissolved in distilled, deionized water to a final concentration of 400 uM. Aliquots of the preparations were stored at −20° C. The day before the experiment, the peptides were shifted from −20° C. to 37° C. and incubated overnight at 37° C.
The neurons at 12-16 d.i.v. and 21-23 d.i.v. were insulted by adding 2.5 ul per well of either 400 uM Aβ1-42 or 400 uM Aβ25-35 (final concentration: 10 uM). Untreated and Aβ35-25-treated wells were taken as negative controls and 25 uM glutamate treated wells were set as the positive control. At the same time as or 2-3 hours after the initiation of Aβ insults, 1:5000 diluted PEG:EtOH (vehicle for PAN-811) as well as PAN-811 at concentrations of 0.25, 05., 1 and 2 μM were added to the Aβ insulted wells. The neurons were continuously incubated at 37° C., 5% CO2. Data were obtained from the readings of 3-6 replicate wells.

primary cortical neurons [11] = test: Protection of neurons from H2O2-induced oxidative stress (60-70 μM H2O2, MTS assay); format: cell-based, rat; conditions: 1-10 μM, 24 h pre-treatment, H2O2 60-70 μM
Method: Twice, half amount of medium was replaced with fresh neurobasal medium containing no antioxidants. […] Each assay was performed in triplicate. […] After 24 hours, the cultures were evaluated for viability and mitochondrial function using a standard MTS Assay (Promega). The manufacturer's protocols were followed. […] The plates were put back into the incubator at 37° C. with 5% CO2 for one hour, then 20 μl MTS reagent was added to each well and plates were incubated at 37° C. with 5% CO2 for an additional two hours. The absorbance at 490 nm for each well was recorded with the BioRad plate reader (Model 550). Wells containing media alone were used as blanks. Each data point is the average of three separate assay wells. […] Three-week-old primary cultures were used for this set of study. Experiments were carried out following the same procedures as experiment 1. Two-week-old primary cultures were used for this study.

cortical neurons [12] = conditions: for protection (Comments): 24 h pre-treatment, 6 h H/H, 24 h post, culture age 15 days, test range started from 5 μM
Method: as §1, §2
Hypoxia/hypoglycemia was obtained by reducing glucose concentration down to 0.4 mM and 1.63 mM for extreme H/H and mild H/H, respectively. BSS (116.0 mM NaCl, 5.4 mM KCl, 0.8 mM MgSO4.e7H20, 1.0 mM NaH2PO4, 1.8 mM CaCl2.2H2O, 26.2 mM NaHCO3, and 0.01 mM glycine) or BSS with 25 mM glucose were de-gassed for 5 minutes prior to use. Culture medium in the plates for hypoxia was replaced with BSS or BSS with glucose. Meanwhile, culture medium in the plates for normoxia was replaced with non de-gassed BSS or BSS with glucose. Cells were committed to hypoxic conditions by transferring the plates into a sealed container (Modular Incubator Chamber-101™, Billups-Rothenberg, Inc.), applying a vacuum for 20 minutes to remove oxygen or other gases from the culture medium, and then refilling the chamber with 5% CO2 and 95% N2 at a pressure of 30 psi for 1 minute. The level of O2 in the chamber was determined to be zero with an O2 indicator (FYRITE Gas Analyzer, Bacharach, Inc.). Culture plates were maintained in the chamber for 6 hours. As an experimental control, duplicate culture plates were maintained under normal culture condition (5% CO2 and 95% ambient air) for the same duration. After a 6-hour treatment, plates were removed from the chamber and the medium in both the hypoxic and normoxic cultures was replaced with a termination solution (DMEM supplemented with 1×sodium pyruvate, 10.0 mM HEPES, and 1×N2 supplement) containing 25 mM glucose and cultured in 5% CO2 and 95% ambient air conditions. […] MK801 was utilized as a positive control. Mitochondrial function and cell death were evaluated at 24 or 48 hours post H/H insult with the MTS and LDH analyses (see below).
The MTS assay is a colorimetric assay that measures the mitochondrial function in metabolically active cells. This measurement indirectly reflects cell viability. […] The absorbance at 490 nm was recorded using a Bio-Rad 96 well plate reader. […]

[13] = 10 uM, 1-6 days post-insult, older neurons (21-23 d.i.v.), 90% AO
[14] = 2 μM, 100% +AO, 1 day post-insult

In the case of “Aβ25-35: amyloid beta peptide fragment from Oncogene or Bachem, used as neurotoxic insult (GSNKGAIIGLM; Amyloid-beta protein 42; UniProt P05067 696-706, looked up, fragment)”, the “increase in LDH of the culture medium” value [1] is reported as ~40%, the “decrease in MTS reading” value [1, 13] is reported as 7.5% and the “increase in medium LDH reading” value [1, 13] is reported as 12-18%. The “concentration able to induce neurotoxicity” value ([1]; 100% AO) was 80 µM.
For `C[C@]12N[C@H](Cc3ccccc31)c1ccccc12` [MK801, reference compound], the “protection from neuronal cell death (morphology)” value (cortical neurons [2]) was “efficient protection from neuronal cell death”.
In the case of “Aβ1-42: amyloid beta peptide (Aβ1-42) from Sigma, used as neurotoxic insult”, the “increase in LDH of the culture medium” value [1] is reported as ~40%.
For `NC(=S)N/N=C/c1ncccc1N` [PAN-811, 3-aminopyridine-2-carboxaldehyde thiosemicarbazone], the solubility [3] was “better solubility in PEG-300/EtOH comparing to EtOH alone”, the “protection from damage by 3-hour hypoxia/hypoglycemia” value ([4]; 10 μM PAN-811) was 92% and the “protection from 1 μM staurosporine” value ([4]; 10 μM PAN-811, 45 min insult) was ~47%. For the same compound, the “protection from 10 μM veratridine” value ([4]; 10 μM PAN-811, 45 min insult) was ~39%, the “protection from 100 μM glutamate” value ([4]; 10 μM PAN-811, 45 min insult) was ~75% and the neuroprotective capacity (primary cortical neurons [5]; PAN-811 1-10 μM) was “good neuroprotective capacity; also recorded: significant neuroprotection”. The “extreme H/H-induced neuronal cell death” value (cortical neurons [6]; 100 μM) was “only partially blocked”, the “protection from neuronal cell death” value (cortical neurons [6]; ≦50 μM, extreme H/H) was “did not protect neuronal cell death” and the “protection from neuronal cell death (morphology)” value (cortical neurons [2]) was “efficient protection from neuronal cell death”. The “neuronal cell death after hypoxia” value (cortical neurons [2]; 21 μM, 48 h prior, during 24-h hypoxia and 48 h after) was “completely blocked the cell death”, the “reduction of basal level of ROS generation” value (primary cortical neurons [7]) was ~50% and the “reduction of H2O2-induced ROS generation” value (primary cortical neurons [7]; 1 h, then 300 μM H2O2 for 2 h) was ~30%. For the same compound, the “Infarct volume, range” value ([8]; 1 mg/kg IV 10 minutes prior to MCAO) was 42.36-387.08 mm^3, the “Infarct Volume (individual rat)” value ([8]; 1 mg/kg IV 10 minutes prior to MCAO, 24 hours after surgery) was 42.36 mm^3 and 126.42 mm^3 and 143.74 mm^3 and 158.83 mm^3 and 196.18 mm^3 and 200.08 mm^3 and 218.54 mm^3 and 221.46 mm^3 and 224.32 mm^3 and 255.36 mm^3 and 267.40 mm^3 and 344.47 mm^3 and 375.59 mm^3 and 387.08 mm^3 and the “Infarct Volume, mean” value ([8]; 1 mg/kg IV 10 minutes prior to MCAO, 24 hours after surgery, n 14) was 225.85 mm^3. The rats that died ([8]; of the 7 rats that died (4 severe strokes, 3 with SAH), 6 were vehicle rats) was 1, the tolerability ([8]; rat, in vivo) was “well tolerated and relatively non-toxic” and the maximal toxicity [9] was 7.8%. The “protection from Aβ25-35 induced neuronal cell death, 3-week old neurons” value ([10]; 2 μM post-treatment (2 or 3h later), 10 μM Aβ25-35, 90% AO) was “well protected; also recorded: fully block”, the “MTS reading, 7-week-old mixed neurons” value [10, 14] was “slight reduction in the MTS reading” and the “morphology of neurons, 7-week-old mixed neurons” value [10, 14] was “well preserved the morphology of neurons”. For the same compound, the “protection from neuronal cell death (morphology monitoring)” value ([10]; 2μM, Aβ insult) was “efficient protection from neuronal cell death”, the “neuronal and neurite morphologies, younger neurons” value ([10]; 2 μM, at the same time as or 3 hours after Aβ1-42 or Aβ25-35 insult, 12-16 days, 0% AO) was “well preserved neuronal and neurite morphologies” and the “Aβ1-42 or Aβ25-35 induced neurotoxicity, younger neurons” value ([10]; 2 μM, neurons 12-16 d.i.v. (2-week old), 0% AO, 10 uM Aβ) was “fully block; also recorded: well protected”. For the same compound, the “LDH reading, younger neurons” value ([10]; 2 μM, same time or 2-3 hours post Aβ1-42 or Aβ25-35, day 16, 0% AO) was “down to a level lower than untreated (control) group”, the “neuronal and neurite morphologies, older neurons” value ([10]; 0.25-2 uM, same time as or 2-3 hour after Aβ insult, 90% AO, 1-6 days) was “well preserved neuronal and neurite morphologies” and the “MTS reading, older neurons” value ([10]; 0.25 to 1 μM, 3 hours after initiation of Aβ25-35 insult, 90% AO) was “up to control level”. The “Aβ1-42 and Aβ25-35 induced neurotoxicity, older neurons” value ([10]; 0.25 to 2 μM, neurons 21-23 d.i.v., 90% AO) was “fully blocked”, the “lowest dose giving full protection” value ([10]; administered 3 hours after initiation of Aβ25-35 insult) was 0.25 µM and the neuroprotective capacity (primary cortical neurons [11]) was “good neuroprotective capacity”. For the same compound, the “protection from mild H/H induced neurotoxicity” value (cortical neurons [12]; 2 μM) was “completely protected”, the “protection from H/H-induced mitochondria dysfunction and neuronal cell death” value (cortical neurons [12]; 5 μM, 24 h before and during 6-h H/H, MTS and LDH 17 h post insult) was “completely protected” and the “protection (Comments)” value (cortical neurons [12]; 5 μM) was 5 μM: 100% protected. For the same compound, the “protection (Comments)” value (cortical neurons [12]; 10 μM) was 10 μM: 100% protected.
With Vitamin E [reference compound] the neuroprotective capacity (primary cortical neurons [5]; known neuroprotectants) was “minimal neuroprotective capacity”.
With `O=C(O)CCCC[C@@H]1CCSS1` (racemic) [lipoic acid, reference compound] the neuroprotective capacity (primary cortical neurons [5]; known neuroprotectants) was “minimal neuroprotective capacity”.
